ChEMBL document CHEMBL1201862, “PubChem BioAssay data set” (2004)
Calls of active or inactive are those of the source.

What was measured:
[1] = biological target: 1-phosphatidylinositol 4,5-bisphosphate phosphodiesterase beta-3 (Homo sapiens, UniProt Q01970); assay: Fluorescence-based biochemical high throughput dose response assay to identify inhibitors of phospholipase C isozymes (PLC-B3).
[2] = biological target: 1-phosphatidylinositol 4,5-bisphosphate phosphodiesterase gamma-1 (Homo sapiens, UniProt P19174); assay: Counterscreen for inhibitors of phospholipase C isozymes (PLC-B3): Fluorescence-based biochemical high throughput dose response assay to identify inhibitors of phospholipase C isozymes (PLC-gamma1).
1-phosphatidylinositol 4,5-bisphosphate phosphodiesterase gamma-1, sequence (P19174 whole entry): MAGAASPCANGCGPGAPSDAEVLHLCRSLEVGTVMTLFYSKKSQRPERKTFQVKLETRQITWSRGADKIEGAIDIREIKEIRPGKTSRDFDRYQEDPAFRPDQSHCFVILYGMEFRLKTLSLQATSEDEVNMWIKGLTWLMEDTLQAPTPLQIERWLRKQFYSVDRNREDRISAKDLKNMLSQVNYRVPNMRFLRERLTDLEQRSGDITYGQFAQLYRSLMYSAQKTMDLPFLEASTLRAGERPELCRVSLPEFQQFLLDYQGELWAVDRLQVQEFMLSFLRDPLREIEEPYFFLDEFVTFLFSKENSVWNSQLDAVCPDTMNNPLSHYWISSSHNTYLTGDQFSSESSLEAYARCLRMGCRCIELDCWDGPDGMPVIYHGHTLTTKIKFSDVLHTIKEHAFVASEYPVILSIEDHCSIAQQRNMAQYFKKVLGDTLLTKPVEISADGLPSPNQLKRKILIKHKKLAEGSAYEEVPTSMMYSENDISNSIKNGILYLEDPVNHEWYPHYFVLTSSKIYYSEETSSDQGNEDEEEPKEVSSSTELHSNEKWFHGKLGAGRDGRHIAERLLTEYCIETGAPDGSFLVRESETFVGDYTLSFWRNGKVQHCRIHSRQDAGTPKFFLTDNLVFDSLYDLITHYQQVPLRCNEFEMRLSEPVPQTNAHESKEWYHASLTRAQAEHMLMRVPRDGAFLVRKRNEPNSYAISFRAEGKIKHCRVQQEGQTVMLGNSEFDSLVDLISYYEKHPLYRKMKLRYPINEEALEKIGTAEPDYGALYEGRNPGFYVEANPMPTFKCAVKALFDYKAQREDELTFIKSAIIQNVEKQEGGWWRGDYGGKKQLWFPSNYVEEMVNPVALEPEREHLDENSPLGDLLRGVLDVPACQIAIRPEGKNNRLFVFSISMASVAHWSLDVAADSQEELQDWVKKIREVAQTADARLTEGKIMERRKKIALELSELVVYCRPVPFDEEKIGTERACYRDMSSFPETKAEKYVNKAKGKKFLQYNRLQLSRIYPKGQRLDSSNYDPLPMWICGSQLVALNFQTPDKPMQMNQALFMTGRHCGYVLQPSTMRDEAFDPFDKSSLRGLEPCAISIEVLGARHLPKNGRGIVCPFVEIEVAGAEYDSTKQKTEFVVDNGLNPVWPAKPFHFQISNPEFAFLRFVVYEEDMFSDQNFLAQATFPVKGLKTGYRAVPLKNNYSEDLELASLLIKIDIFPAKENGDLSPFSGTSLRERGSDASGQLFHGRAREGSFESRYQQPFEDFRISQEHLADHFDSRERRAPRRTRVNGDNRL

[3] = biological target: T1, Methionyl-tRNA synthetase, putative (Trypanosoma brucei brucei, UniProt Q38C91); assay type: functional, Trypanosoma brucei brucei strain 927/4 GUTat10.1
T1 sequence (Q38C91 whole entry): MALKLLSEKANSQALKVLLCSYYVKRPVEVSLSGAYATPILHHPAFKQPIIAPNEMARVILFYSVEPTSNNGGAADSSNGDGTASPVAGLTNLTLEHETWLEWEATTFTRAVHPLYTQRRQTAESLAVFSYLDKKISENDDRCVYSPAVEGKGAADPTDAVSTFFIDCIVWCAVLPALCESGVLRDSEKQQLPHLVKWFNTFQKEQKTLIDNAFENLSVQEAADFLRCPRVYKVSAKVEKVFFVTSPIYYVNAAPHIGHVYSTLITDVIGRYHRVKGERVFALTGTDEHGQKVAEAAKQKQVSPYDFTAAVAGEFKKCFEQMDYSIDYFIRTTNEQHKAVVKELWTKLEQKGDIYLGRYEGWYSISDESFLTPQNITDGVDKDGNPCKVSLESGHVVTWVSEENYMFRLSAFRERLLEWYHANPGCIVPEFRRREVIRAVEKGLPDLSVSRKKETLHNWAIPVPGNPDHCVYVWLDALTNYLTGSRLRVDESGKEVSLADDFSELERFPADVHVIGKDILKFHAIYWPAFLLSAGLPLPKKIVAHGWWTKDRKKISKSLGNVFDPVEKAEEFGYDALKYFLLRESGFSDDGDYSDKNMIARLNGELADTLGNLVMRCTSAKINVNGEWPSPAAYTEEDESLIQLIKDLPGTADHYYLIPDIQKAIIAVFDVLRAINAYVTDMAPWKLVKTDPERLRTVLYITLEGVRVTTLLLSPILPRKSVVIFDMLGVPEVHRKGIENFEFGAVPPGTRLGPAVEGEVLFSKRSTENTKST

[4] = tested on: Streptococcus sp. 'group A'; assay: Streptococcus pyogenes SK(-)GAS viability under kanamycin – luminescence, BacTiterGlo, confirmation, counter-screen for streptokinase expression inhibitor project, dose response (AID 1900); assay type: functional, organism-based; conditions: Streptococcus sp. 'group A'
[5] = Counterscreen for inhibitors of Trypanosoma brucei methionyl tRNA synthetase (MetRS): Luminescence-based cell-based high throughput dose response assay to identify compounds that are cytotoxic to Jurkat human T lymphocyte cells.; assay type: functional
[6] = viability loss in HepG2 hepatoma cells – cell-based, ATP luminescence, cherry-pick, activator set 2, cytotoxicity control, dose response (AID 1053143); assay type: functional
Protein RecA = biological target: T2, Protein RecA (Mycobacterium tuberculosis, UniProt P9WHJ3); assay: Fluorescence Cell-Free Homogeneous Dose Retest to Identify Inhibitors of RecA-Intein Splicing Activity. [Related pubchem assays (depositor defined):AID2097, AID2223, AID489010, AID492950]; assay type: functional
T2 sequence (P9WHJ3 whole entry): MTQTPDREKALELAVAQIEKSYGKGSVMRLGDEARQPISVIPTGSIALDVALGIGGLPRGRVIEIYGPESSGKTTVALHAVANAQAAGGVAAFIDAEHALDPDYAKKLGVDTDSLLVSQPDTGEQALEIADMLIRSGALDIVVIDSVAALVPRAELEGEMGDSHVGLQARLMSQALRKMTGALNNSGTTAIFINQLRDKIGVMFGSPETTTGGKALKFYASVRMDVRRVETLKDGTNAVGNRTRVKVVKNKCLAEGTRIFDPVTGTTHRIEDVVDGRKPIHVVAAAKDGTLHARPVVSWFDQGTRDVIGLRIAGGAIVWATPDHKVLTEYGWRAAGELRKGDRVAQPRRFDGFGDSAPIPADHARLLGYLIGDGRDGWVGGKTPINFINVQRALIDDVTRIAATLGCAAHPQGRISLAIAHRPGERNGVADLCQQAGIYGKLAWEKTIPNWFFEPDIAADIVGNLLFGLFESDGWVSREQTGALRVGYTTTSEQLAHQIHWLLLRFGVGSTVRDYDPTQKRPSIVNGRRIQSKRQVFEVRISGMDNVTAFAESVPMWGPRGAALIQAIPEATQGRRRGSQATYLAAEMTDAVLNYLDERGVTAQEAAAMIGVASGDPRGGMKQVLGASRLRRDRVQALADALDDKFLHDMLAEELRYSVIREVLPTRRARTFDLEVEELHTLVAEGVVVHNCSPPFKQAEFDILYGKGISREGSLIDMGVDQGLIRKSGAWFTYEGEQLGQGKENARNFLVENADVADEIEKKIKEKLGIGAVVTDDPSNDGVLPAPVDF

[7] = biological target: T3, Replicative DNA helicase DnaB (Mycobacterium tuberculosis, UniProt P9WMR3); assay: DnaB intein splicing inhibitors, dose response, biochemical, cell-free fluorescence (AID 449749); assay type: functional
T3 sequence (P9WMR3 whole entry): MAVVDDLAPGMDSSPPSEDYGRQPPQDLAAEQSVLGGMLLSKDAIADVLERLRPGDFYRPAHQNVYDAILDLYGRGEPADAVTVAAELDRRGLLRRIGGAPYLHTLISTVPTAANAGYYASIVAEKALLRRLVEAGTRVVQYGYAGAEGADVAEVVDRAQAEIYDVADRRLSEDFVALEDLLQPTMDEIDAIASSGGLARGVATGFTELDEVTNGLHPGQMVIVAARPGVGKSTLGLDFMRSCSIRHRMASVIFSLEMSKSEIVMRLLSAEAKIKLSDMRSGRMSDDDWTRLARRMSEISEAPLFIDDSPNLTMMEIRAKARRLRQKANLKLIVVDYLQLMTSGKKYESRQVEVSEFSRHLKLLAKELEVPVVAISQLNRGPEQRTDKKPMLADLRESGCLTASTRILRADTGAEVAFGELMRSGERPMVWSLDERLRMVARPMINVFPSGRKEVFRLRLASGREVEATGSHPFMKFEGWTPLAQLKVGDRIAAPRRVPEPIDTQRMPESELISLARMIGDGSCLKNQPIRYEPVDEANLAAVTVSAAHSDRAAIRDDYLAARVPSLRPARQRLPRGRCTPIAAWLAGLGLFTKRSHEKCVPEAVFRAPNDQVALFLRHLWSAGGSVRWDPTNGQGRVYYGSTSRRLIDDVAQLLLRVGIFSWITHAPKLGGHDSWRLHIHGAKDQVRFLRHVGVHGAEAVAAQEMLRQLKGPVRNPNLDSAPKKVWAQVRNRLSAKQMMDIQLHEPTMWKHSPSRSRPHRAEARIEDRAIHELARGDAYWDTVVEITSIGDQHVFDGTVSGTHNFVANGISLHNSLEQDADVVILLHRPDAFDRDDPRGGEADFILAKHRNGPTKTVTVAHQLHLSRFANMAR

Vero = assay: cells; assay type: functional; conditions: Chlorocebus sabaeus
Streptococcus = assay: GAS UMAA2166 growth inhibition – luminescence, BacTiterGlo, counter-screen for streptokinase expression inhibitor project, dose response (AID 1915); assay type: functional, organism-based; conditions: Streptococcus;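 note: potency for reduction of bacterial viability or growth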
[8] = biological target: T1, Methionyl-tRNA synthetase, putative; assay type: functional, Trypanosoma brucei brucei strain 927/4 GUTat10.1; remark: listed apart in the source
Streptokinase A = biological target: T4, Streptokinase A (Streptococcus pyogenes serotype M1, UniProt P10520); assay: viability-normalized secreted streptokinase activity reduction – plasminogen activation absorbance, OD405, dose response (AID 1914); assay type: functional, Streptococcus pyogenes M1 GAS;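 note: secreted streptokinase activity via plasminogen activation per viability signal from cell pellet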
T4 sequence (P10520 whole entry): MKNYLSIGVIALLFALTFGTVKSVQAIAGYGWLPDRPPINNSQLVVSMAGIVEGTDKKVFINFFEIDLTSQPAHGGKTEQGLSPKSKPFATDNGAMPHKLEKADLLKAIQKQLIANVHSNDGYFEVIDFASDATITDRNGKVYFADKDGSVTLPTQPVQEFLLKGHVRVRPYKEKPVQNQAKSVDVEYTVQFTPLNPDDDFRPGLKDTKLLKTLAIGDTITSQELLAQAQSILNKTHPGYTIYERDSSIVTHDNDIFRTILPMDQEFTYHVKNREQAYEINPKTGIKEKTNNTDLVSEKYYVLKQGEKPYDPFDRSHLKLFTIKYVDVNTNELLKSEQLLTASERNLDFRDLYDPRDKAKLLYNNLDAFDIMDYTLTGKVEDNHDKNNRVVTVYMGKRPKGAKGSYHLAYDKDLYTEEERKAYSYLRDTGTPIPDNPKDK

[9] = HEK293 Cytotoxicity Assay Measured in Cell-Based System Using Plate Reader - 7071-01_Inhibitor_Dose_CherryPick_Activity_Set2.; assay type: functional
HEK293 = assay: viability loss in HEK293T cells – cell-based, ATP luminescence, cherry-pick samples, cytotoxicity control, dose response (AID 687005); assay type: functional; conditions: Homo sapiens;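 note: cells exposed to compound for 48 hours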
HeLa = assay: viability loss in HeLa cells – cell-based, ATP luminescence, cherry-pick samples, cytotoxicity control, dose response (AID 687004); assay type: functional; conditions: Homo sapiens
Kallikrein-7 = Kallikrein-7 (Homo sapiens, UniProt P49862); assay: Fluorescence Intensity-based biochemical primary high throughput dose response assay to identify activators of kallikrein-7 (K7) zymogen.
Kallikrein-7, sequence (P49862 whole entry): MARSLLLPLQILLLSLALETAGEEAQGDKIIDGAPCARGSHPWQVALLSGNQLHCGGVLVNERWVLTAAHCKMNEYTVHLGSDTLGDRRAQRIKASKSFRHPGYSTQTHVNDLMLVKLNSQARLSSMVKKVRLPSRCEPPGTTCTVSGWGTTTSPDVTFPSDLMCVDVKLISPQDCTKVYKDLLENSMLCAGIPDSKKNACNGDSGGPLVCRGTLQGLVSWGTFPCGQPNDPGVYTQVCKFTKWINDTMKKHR

[10] = viability loss in HEK293 cells – cell-based, plate reader, cherry-picked samples, cytotoxicity control, dose response (AID 743446); assay type: functional
BJ [11] = assay: BJ-TERT-LT-ST fibroblast viability loss – cell-based, RAS-independent, luminescence, dose response (AID 1935); assay type: functional; conditions: Homo sapiens;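 note: BJ fibroblasts immortalized with TERT plus LT and ST oncogenes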
BJ [12] = assay: cells; assay type: functional, cell-based; conditions: Homo sapiens
[13] = biological target: Luciferin 4-monooxygenase (Photinus pyralis, UniProt P08659); assay: inhibition of purified Photinus pyralis luciferase – biochemical, luminescence, dose response (AID 1891)
Luciferin 4-monooxygenase, sequence (P08659 whole entry): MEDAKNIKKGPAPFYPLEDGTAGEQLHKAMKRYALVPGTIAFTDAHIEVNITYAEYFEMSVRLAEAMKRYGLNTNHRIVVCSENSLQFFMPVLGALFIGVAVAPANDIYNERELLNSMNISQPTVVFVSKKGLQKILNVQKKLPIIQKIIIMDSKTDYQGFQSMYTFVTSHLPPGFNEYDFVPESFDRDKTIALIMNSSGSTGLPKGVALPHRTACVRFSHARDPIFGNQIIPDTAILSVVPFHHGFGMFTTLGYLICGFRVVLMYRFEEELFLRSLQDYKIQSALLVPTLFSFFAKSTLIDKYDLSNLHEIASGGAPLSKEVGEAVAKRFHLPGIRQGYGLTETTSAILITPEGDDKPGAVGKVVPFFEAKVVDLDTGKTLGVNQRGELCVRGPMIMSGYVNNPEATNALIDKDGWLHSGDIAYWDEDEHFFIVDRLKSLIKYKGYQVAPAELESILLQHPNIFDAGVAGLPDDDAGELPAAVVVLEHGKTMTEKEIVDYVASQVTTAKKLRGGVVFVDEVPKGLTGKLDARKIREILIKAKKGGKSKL

[14] = Luminescence Cell-Based Dose Confirmation HTS to Identify Inhibitors of Platelet Dense Granule Release. [Related pubchem assays: 1663 (Primary HTS), 1678 (Summary of Project)]; assay type: functional
[15] = toxicity toward HepG2 liver cells – cell-based, plate reader, cherry-pick, antagonist series, cytotoxicity control, dose response (AID 743416); assay type: functional
[16] = A549 cell cytotoxicity, dose response, cytotoxicity control, plate reader, cherry-pick, antagonist series (AID 743412); assay type: functional, cell-based
[17] = blockade of melanocortin 4 receptor signaling – cell-based, plate reader, cherry pick, counter-screen for LGR2 antagonist project, dose response (AID 743444); assay type: functional;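 note: transfected HEK 293 cells stimulated with alpha-MSH peptide; potency of inhibitors of the alpha-MSH evoked signal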
[18] = blockers of bursicon-stimulated LGR2 cAMP reporter – cell-based, HEK293, CRE-luciferase reporter, cherry pick, set 2, dose response (AID 743343); assay type: functional;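 note: transfected cells were stimulated with diluted bursicon conditioned medium after compound addition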
BJ [19] = assay: BJ-TERT fibroblast viability loss – cell-based, RAS-independent, luminescence, dose response (AID 1933); assay type: functional; conditions: Homo sapiens
[20] = DRD fibroblast viability loss – cell-based, non-viral oncogenic, luminescence, dose response (AID 1934); assay type: functional; conditions: Homo sapiens
[21] = IC50 of insulin release inhibition, rat insulinoma INS-1E line, 5 mM glucose, cell-based (AID 1117331); assay type: functional
cells = assay type: functional, cell-based; conditions: INS-1E

1-phosphatidylinositol 4,5-bisphosphate phosphodiesterase beta-3, sequence (Q01970 whole entry): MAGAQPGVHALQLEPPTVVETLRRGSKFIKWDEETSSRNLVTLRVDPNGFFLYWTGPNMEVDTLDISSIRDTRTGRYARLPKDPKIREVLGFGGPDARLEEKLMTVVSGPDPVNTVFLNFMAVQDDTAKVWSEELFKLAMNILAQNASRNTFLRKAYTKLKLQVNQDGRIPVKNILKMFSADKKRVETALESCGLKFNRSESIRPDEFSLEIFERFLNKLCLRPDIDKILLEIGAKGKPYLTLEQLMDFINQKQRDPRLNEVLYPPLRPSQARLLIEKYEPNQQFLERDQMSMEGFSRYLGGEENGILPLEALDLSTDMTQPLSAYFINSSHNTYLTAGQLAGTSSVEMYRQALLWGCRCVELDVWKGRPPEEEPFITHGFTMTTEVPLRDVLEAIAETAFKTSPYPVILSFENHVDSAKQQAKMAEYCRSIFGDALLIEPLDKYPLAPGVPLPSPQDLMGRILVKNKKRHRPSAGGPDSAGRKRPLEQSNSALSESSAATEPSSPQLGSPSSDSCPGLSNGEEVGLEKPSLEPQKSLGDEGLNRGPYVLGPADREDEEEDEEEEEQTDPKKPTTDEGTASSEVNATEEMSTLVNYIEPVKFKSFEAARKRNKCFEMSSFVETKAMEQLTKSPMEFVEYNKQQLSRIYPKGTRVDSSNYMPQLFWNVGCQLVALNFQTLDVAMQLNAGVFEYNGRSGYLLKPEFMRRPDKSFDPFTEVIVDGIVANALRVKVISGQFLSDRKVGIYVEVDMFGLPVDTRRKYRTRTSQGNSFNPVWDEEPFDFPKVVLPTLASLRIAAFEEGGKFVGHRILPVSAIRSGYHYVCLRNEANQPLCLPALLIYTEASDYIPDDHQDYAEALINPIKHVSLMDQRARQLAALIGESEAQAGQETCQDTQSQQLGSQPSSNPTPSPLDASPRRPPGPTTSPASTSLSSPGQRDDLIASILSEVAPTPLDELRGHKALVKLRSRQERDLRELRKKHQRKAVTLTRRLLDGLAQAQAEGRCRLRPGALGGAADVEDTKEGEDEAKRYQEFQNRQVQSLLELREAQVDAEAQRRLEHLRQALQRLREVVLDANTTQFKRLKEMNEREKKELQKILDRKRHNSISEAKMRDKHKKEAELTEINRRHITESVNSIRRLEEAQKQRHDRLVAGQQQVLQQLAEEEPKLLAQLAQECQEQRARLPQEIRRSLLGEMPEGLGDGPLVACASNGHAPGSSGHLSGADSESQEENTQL

Compound: Cc1ccccc1C(=O)NC1CCN(Cc2nnnn2C2CCCC2)CC1
- IC50 [1]: > 122 µM (inactive)
- IC50 [2]: > 122 µM (inactive)

Compound: Cc1[nH]c2ccccc2c1/C=N/Nc1nc2ccccc2[nH]1
- IC50 [3]: 17.1 µM (inactive)
- EC50 [4]: 7.74 µM (active)
- IC50 [5]: 36.2 µM (inactive)
- AC50 [6]: 26 µM (active)
- EC50 (Protein RecA): 39.3 µM (active)
- AC50 [7]: > 380 µM (inactive)
- CC50 (Vero): > 25 µM (active)
- EC50 (Streptococcus): 9.86 µM (active)
- IC50 [8]: 36.9 µM (inactive)
- EC50 (Streptokinase A): > 150 µM (not active)

Compound: CC(C)(C)c1ccc(OCC(=O)NC(c2ccccc2)c2ccccc2)cc1
- AC50 [9]: 3.2 µM (active)
- AC50 (HEK293): 3.2 µM (active)
- AC50 (HeLa): > 70 µM (inactive)

Compound: O=C(CN1CCOCC1)N[C@@H]1CC[C@@H](CCNC(=O)C2CCC2)O[C@@H]1CO
- AC50 [9]: 14.8 µM (active)
- AC50 (HEK293): 14.8 µM (active)

Compound: O=C(Nc1c(-c2ccccc2)nc2ncccn12)c1ccccc1
- EC50 (Kallikrein-7): > 69.6 µM (inactive)

Compound: CCOc1ccc(Nc2nc(N)c3ccccc3n2)cc1
- AC50 [10]: 13.2 µM (active)
- EC50 (BJ [11]): 17.5 µM (active)
- EC50 (BJ [12]): 8.24 µM (active)
- EC50 [13]: 0.765 µM (active)
- EC50 [14]: 0.738 µM (active)
- AC50 [15]: 12.9 µM (active)
- AC50 [16]: 12.8 µM (active)
- AC50 [17]: 2.31 µM (active)
- AC50 [18]: 1.62 µM (active)
- EC50 (BJ [19]): 7.8 µM (active)
- EC50 [20]: 8.22 µM (active)

Compound: CN1CCc2cc(Cl)c(O)cc2[C@H]2c3ccccc3CC[C@@H]21 [ECOPIPAM]
- IC50 [21]: 15.4 µM (inactive)
- IC50 (cells): > 33.3 µM (inactive)
